For this test, the target named is T1, FPRL-1 (Homo sapiens, UniProt P25090).
T1 construct: expressed in transfected cells; host or cells: CHO-Gα16 cells stably expressing FPRL1
T1 sequence (P25090 1-351): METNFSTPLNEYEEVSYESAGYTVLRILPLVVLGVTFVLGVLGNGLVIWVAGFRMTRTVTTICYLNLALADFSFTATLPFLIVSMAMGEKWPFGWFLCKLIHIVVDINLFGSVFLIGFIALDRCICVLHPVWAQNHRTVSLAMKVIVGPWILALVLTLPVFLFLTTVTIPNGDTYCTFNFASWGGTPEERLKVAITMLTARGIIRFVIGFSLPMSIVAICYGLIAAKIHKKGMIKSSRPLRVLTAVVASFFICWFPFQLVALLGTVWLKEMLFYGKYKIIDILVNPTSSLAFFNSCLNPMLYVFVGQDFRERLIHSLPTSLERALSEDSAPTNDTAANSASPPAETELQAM
Kind of test: FPRL-1 Ga16-CHO compound-induced calcium activity (FLIPR Tetra). Type of test: cell-based. Conditions: calcium activity on FLIPR Tetra, tested at 0.61 to 10,000 nM. The procedure:
HEK-Gα16 and CHO-Gα16 cells stably expressing FPRL1 were cultured in (F12, 10% FBS, 1% PSA, 400 μg/ml geneticin and 50 μg/ml hygromycin) and HEK-Gqi5 cells stable expressing FPR1 were cultured in (DMEM high glucose, 10% FBS, 1% PSA, 400 μg/ml geneticin and 50 μg/ml hygromycin). In general, the day before the experiment, 18,000 cells/well were plated in a 384-well clear bottom poly-d-lysine coated plate. The following day the screening compound-induced calcium activity was assayed on the FLIPR^Tetra. The drug plates were prepared in 384-well microplates using the EP3 and the MultiPROBE robotic liquid handling systems. Compounds were tested at concentrations ranging from 0.61 to 10,000 nM. Results are expressed as EC50 (nM) and efficacy values.

Setting [1] is: CHO-Gα16 cells stably expressing FPRL1, read-out: FPRL-1 Ga16-CHO EC50.
Where [2] appears, read: FPRL-1 Ga16-CHO EC50, CHO-Gα16 cells stably expressing FPRL1.

Like-named read-outs stand apart in the source and are kept apart here. Some results are limits rather than exact numbers.

For orientation: EC50 means the concentration giving half of the maximal effect. In the case of `O=C(Nc1ccc(Br)cc1)NN1C(=O)NC2(Cc3ccccc3C2)C1=O` [Compound 13, 1-(4-Bromophenyl)-3-(2,5-dioxo-1′,3′-dihydrospiro[imidazolidine-4,2′-inden]-1-yl)urea], under setting [1], the concentration for a half-maximal effect (EC50) came to 47 nM.

Consider `CC(C)CC1(CCc2ccccc2)NC(=O)N(NC(=O)Nc2ccc(Br)cc2F)C1=O` (stereo not drawn) [Compound 32], for which the EC50 under setting [1] was 105 nM.

Take `CC1(CCc2ccncc2)NC(=O)N(NC(=O)Nc2ccc(Br)cc2F)C1=O` (stereo not drawn) [Compound 55]: the EC50 under setting [1] worked out at 28.6 nM.

In the case of `CC1(CCc2cccc(O)c2)NC(=O)N(NC(=O)Nc2ccc(Br)cc2F)C1=O` (stereo not drawn) [Compound 53, 1-(4-Bromo-2-fluorophenyl)-3-(4-(3-hydroxyphenethyl)-4-methyl-2,5-dioxoimidazolidin-1-yl)urea], the EC50 under setting [1] turned out to be 2.9 nM.

`CC1(CCc2ccc(O)cc2)NC(=O)N(NC(=O)Nc2ccc(Br)cc2)C1=O` (stereo not drawn) [Compound 42, 1-(4-Bromophenyl)-3-(4-(4-hydroxyphenethyl)-4-methyl-2,5-dioxoimidazolidin-1-yl)urea]: the EC50 under setting [1] is 13.3 nM.

`CC(C)C1(CC(=O)NCCC(=O)OC(C)(C)C)NC(=O)N(NC(=O)Nc2ccc(Br)cc2)C1=O` (stereo not drawn) [Compound 91, tert-Butyl 3-(2-(1-(3-(4-bromophenyl)ureido)-4-isopropyl-2,5-dioxoimidazolidin-4-yl)acetamido)propanoate]: the EC50 under setting [1] was determined as 79.1 nM.

As to `CC(C)C1(C(C)C)NC(=O)N(NC(=O)Nc2ccc(Br)cc2)C1=O` [Compound 67, 1-(4-Bromophenyl)-3-[2,5-dioxo-4,4-di(propan-2-yl)imidazolidin-1-yl]urea], the EC50 under setting [1] was under 2 nM.

On to `CC1(CCc2cccc(F)c2)NC(=O)N(NC(=O)Nc2ccc(Br)cc2)C1=O` (stereo not drawn) [Compound 41, 1-(4-Bromophenyl)-3-(4-(3-fluorophenethyl)-4-methyl-2,5-dioxoimidazolidin-1-yl)urea], for which, under setting [1], the EC50 was 11.1 nM.

In the case of `O=C(Nc1ccc(Br)cc1)NN1C(=O)NC2(CCCCC2)C1=O` [Compound 14, 1-(4-Bromophenyl)-3-(2,4-dioxo-1,3-diazaspiro[4.5]decan-3-yl)urea], the EC50 under setting [1] was determined as 13.6 nM.

For `CC1(CCc2ccccc2O)NC(=O)N(NC(=O)Nc2ccc(Br)cc2F)C1=O` (stereo not drawn) [Compound 51, 1-(4-Bromo-2-fluorophenyl)-3-(4-(2-hydroxyphenethyl)-4-methyl-2,5-dioxoimidazolidin-1-yl)urea], the concentration giving a half-maximal response (EC50) under setting [1] is 5.8 nM.

Regarding `CC(C)CC1(CCc2ccccc2)NC(=O)N(NC(=O)Nc2ccc(Br)cc2)C1=O` (stereo not drawn) [Compound 31], under setting [1], the EC50 came to 86.4 nM.

Take `CC(C)C1(CCO)NC(=O)N(NC(=O)Nc2ccc(Br)cc2)C1=O` (stereo not drawn) [Compound 75, 1-(4-Bromophenyl)-3-(4-(2-hydroxyethyl)-4-isopropyl-2,5-dioxoimidazolidin-1-yl)urea]: under setting [1], the EC50 was determined as 21.2 nM.

Consider `CCC1(CC)NC(=O)N(NC(=O)Nc2ccc(Br)cc2)C1=O` [Compound 1, 1-(4-Bromophenyl)-3-(4,4-diethyl-2,5-dioxoimidazolidin-1-yl)urea], for which, under setting [1], the EC50 is 9.1 nM.

Turning to `CC(C)C1(CC(=O)NC(C)(C)C(=O)O)NC(=O)N(NC(=O)Nc2ccc(Br)cc2)C1=O` (stereo not drawn) [Compound 95, 2-(2-(1-(3-(4-Bromophenyl)ureido)-4-isopropyl-2,5-dioxoimidazolidin-4-yl)acetamido)-2-methylpropanoic acid], the EC50 under setting [1] was found to be 109 nM.

In the case of `CC(C)C1(CC(=O)NCC(=O)O)NC(=O)N(NC(=O)Nc2ccc(Br)cc2)C1=O` (stereo not drawn) [Compound 92, 2-(2-(1-(3-(4-Bromophenyl)ureido)-4-isopropyl-2,5-dioxoimidazolidin-4-yl)acetamido)acetic acid], the EC50 under setting [1] stood at 133 nM.

Consider `CC(C)OP(=O)(CNC(=O)CC1(C(C)C)NC(=O)N(NC(=O)Nc2ccc(Br)cc2)C1=O)OC(C)C` (stereo not drawn) [Compound 88, Diisopropyl((2-(1-(3-(4-bromophenyl)ureido)-4-isopropyl-2,5-dioxoimidazolidin-4-yl)acetamido)methyl)phosphonate], for which, under setting [1], the EC50 is 193 nM.

As for `CC1(C)NC(=O)N(NC(=O)Nc2ccc(Br)cc2)C1=O` [Compound 12, 1-(4-Bromophenyl)-3-(4,4-dimethyl-2,5-dioxoimidazolidin-1-yl)urea], the EC50 under setting [1] is 74.9 nM.

Regarding `CCOP(=O)(CNC(=O)CC1(C(C)C)NC(=O)N(NC(=O)Nc2ccc(Br)cc2)C1=O)OCC` (stereo not drawn) [Compound 86, Diethyl((2-(1-(3-(4-bromophenyl)ureido)-4-isopropyl-2,5-dioxoimidazolidin-4-yl)acetamido)methyl)phosphonate], the EC50 under setting [2] worked out at 272 nM.

Take `CC1(CCc2ccc(O)cc2)NC(=O)N(NC(=O)Nc2ccc(Br)cc2F)C1=O` (stereo not drawn) [Compound 45, 1-(4-Bromo-2-fluorophenyl)-3-(4-(4-hydroxyphenethyl)-4-methyl-2,5-dioxoimidazolidin-1-yl)urea]: the concentration for a half-maximal effect (EC50) under setting [1] worked out at 8.7 nM.

In the case of `CCC1(CCc2ccccc2C(=O)OC)NC(=O)N(NC(=O)Nc2ccc(Br)cc2F)C1=O` (stereo not drawn) [Compound 61, Methyl 2-(2-(1-(3-(4-bromo-2-fluorophenyl)ureido)-4-ethyl-2,5-dioxoimidazolidin-4-yl)ethyl)benzoate], under setting [1], the EC50 is 14.9 nM.

On to `CCC1(CC)NC(=O)N(NC(=O)Nc2ccc(C)cc2)C1=O` [Compound 7, 1-(4-Methylphenyl)-3-(4,4-diethyl-2,5-dioxoimidazolidin-1-yl)urea], for which the EC50 under setting [1] was 96 nM.

Take `CCC1(CCc2ccccc2)NC(=O)N(NC(=O)Nc2ccc(Br)cc2F)C1=O` (stereo not drawn) [Compound 29, 1-(4-Bromo-2-fluorophenyl)-3-(4-ethyl-2,5-dioxo-4-(phenethyl)imidazolidin-1-yl)urea]: the EC50 under setting [1] was under 2 nM.

Turning to `CC1(CCc2ccccc2F)NC(=O)N(NC(=O)Nc2ccc(Br)cc2F)C1=O` (stereo not drawn) [Compound 38, 1-(4-Bromo-2-fluorophenyl)-3-(4-(2-fluorophenethyl)-4-methyl-2,5-dioxoimidazolidin-1-yl)urea], the EC50 under setting [1] was 56.2 nM.

Regarding `CC1(CCc2ccccc2)NC(=O)N(NC(=O)Nc2ccc(Br)cc2F)C1=O` (stereo not drawn) [Compound 17, 1-(4-Bromo-2-fluorophenyl)-3-(4-methyl-2,5-dioxo-4-phenethylimidazolidin-1-yl)urea], the EC50 under setting [1] came out at 61 nM.

Consider `CC1(CCc2cccs2)NC(=O)N(NC(=O)Nc2ccc(Br)cc2)C1=O` (stereo not drawn) [Compound 43], for which the EC50 under setting [1] was 7.9 nM.

Turning to `O=C(Nc1ccc(Br)cc1)NN1C(=O)NC2(CCc3ccccc3C2)C1=O` (stereo not drawn) [Compound 27, 1-(4-Bromophenyl)-3-(2,5-dioxo-3′,4′-dihydro-1H,1′H-spiro[imidazolidine-4,2′-naphthalen]-1-yl)urea], the EC50 under setting [1] is 53.5 nM.

As for `CCC1(CC)NC(=O)N(NC(=O)Nc2ccc(OC)cc2)C1=O` [Compound 3, 1-(4-Methoxyphenyl)-3-(4,4-diethyl-2,5-dioxoimidazolidin-1-yl)urea], under setting [1], the EC50 is 194 nM.

Turning to `O=C(Nc1ccc(Br)cc1F)NN1C(=O)NC2(CCc3ccccc3C2)C1=O` (stereo not drawn) [Compound 26], under setting [1], the EC50 came out at 191 nM.

`CCC1(CC)NC(=O)N(NC(=O)Nc2ccc(Cl)cc2)C1=O` [Compound 2, 1-(4-Chlorophenyl)-3-(4,4-diethyl-2,5-dioxoimidazolidin-1-yl)urea]: under setting [1], the EC50 was found to be 27 nM.

Take `CCC1(CC)NC(=O)N(NC(=O)Nc2ccc(Cl)c(F)c2)C1=O` [Compound 19, 1-(4-Chloro-3-fluorophenyl)-3-(4,4-diethyl-2,5-dioxoimidazolidin-1-yl)urea]: the EC50 under setting [1] amounted to 149 nM.

Consider `CC(C)C1(CC(=O)O)NC(=O)N(NC(=O)Nc2ccc(Br)cc2F)C1=O` (stereo not drawn) [Compound 82, 2-(1-(3-(4-Bromo-2-fluorophenyl)ureido)-4-isopropyl-2,5-dioxoimidazolidin-4-yl)acetic acid], for which the concentration for a half-maximal effect (EC50) under setting [1] is 713 nM.

With `CC(C)C1(CO)NC(=O)N(NC(=O)Nc2ccc(Br)cc2F)C1=O` (stereo not drawn) [Compound 76, 1-(4-Bromo-2-fluorophenyl)-3-(4-(2-hydroxymethyl)-4-isopropyl-2,5-dioxoimidazolidin-1-yl)urea], the EC50 under setting [1] was found to be 50 nM.

Consider `O=C(Nc1ccc(Br)cc1)NN1C(=O)NC(C2CC2)(C2CC2)C1=O` [Compound 66, 1-(4-Bromophenyl)-3-(4,4-dicyclopropyl-2,5-dioxoimidazolidin-1-yl)urea], for which, under setting [1], the EC50 worked out at 14.3 nM.

As to `CC1(CCc2ccccc2O)NC(=O)N(NC(=O)Nc2ccc(Br)cc2)C1=O` (stereo not drawn) [Compound 50, 1-(4-Bromophenyl)-3-(4-(2-hydroxyphenethyl)-4-methyl-2,5-dioxoimidazolidin-1-yl)urea], under setting [1], the EC50 turned out to be 0.97 nM.

As to `CC(C)C1(CO)NC(=O)N(NC(=O)Nc2ccc(Br)cc2)C1=O` (stereo not drawn) [Compound 74, 1-(4-Bromophenyl)-3-(4-(hydroxymethyl)-4-isopropyl-2,5-dioxoimidazolidin-1-yl)urea], the EC50 under setting [1] was 2.65 nM.

For `CCOP(=O)(O)CNC(=O)CC1(C(C)C)NC(=O)N(NC(=O)Nc2ccc(Br)cc2)C1=O` (stereo not drawn) [Compound 89, Ethyl hydrogen((2-(1-(3-(4-bromophenyl)ureido)-4-isopropyl-2,5-dioxoimidazolidin-4-yl)acetamido)methyl)phosphonate], the concentration for a half-maximal effect (EC50) under setting [2] worked out at 313 nM.
